Consider 17 molecules from US20230416314A1, “MODIFIED HIGH MOLECULAR WEIGHT GLUTENIN SUBUNIT AND USES THEREOF” (Ukko Inc., priority 2020, published 2023).

Read-outs that look alike come from different tables or passages of the source. Residues, ends and D or L forms follow the SMILES beside them. No end group written: not given here. Some results are limits rather than exact numbers.

The target of test [1] is HLA-DQ8 (Homo sapiens, UniProt P01909+P01920, A209T/A45G/C70Q/D89A/DUP78-78/E183D/E77G/F237L/G63E/H199R/I129T/K197E/L178F/L74F/L98V/Q57E/Q76R/S185I/S97I/T217I/T49S/V73L/Y58L). Nature of the test: MHC II/peptide competition binding assay, HLA-DQ8. As to the method: (§1) One skilled in the art would appreciate that the 15-mers used included shorter de-epitoped high molecular weight glutenin peptide sequences (mutated repeating antigenic units), as described throughout. For example, Table 2 provides a listing of 15-mers and the shorter mutated repeating antigenic units present therein. […] MHC II molecules were purified by affinity chromatography, and peptides were radiolabeled using the chloramine T method. After an incubation period, the bound and unbound radiolabeled species were separated, and their relative amounts were determined by either size-exclusion gel-filtration chromatography or monoclonal antibody capture of MHC. The percent of bound radioactivity was then determined.

In test [2] the target is HLA-DQ7.5 (Homo sapiens, UniProt P01909+P01920). As to the kind of experiment: MHC II/peptide competition binding assay, HLA-DQ7.5. As to the method:
The peptides were synthesized as purified material on the 2 mg scale with free acid C-termini (A&A labs, USA). One skilled in the art would appreciate that the 15-mers used included shorter de-epitoped high molecular weight glutenin peptide sequences (mutated repeating antigenic units), as described throughout. For example, Table 2 provides a listing of 15-mers and the shorter mutated repeating antigenic units present therein.
Briefly, competition assays using different concentrations of wild-type (WT) and modified glutenin peptides were conducted by diluting the peptides in NP40 buffer, and incubation for 2-4 days with purified MHC II and a radiolabeled known MHC binding peptide (peptide probe). MHC II molecules were purified by affinity chromatography, and peptides were radiolabeled using the chloramine T method. After an incubation period, the bound and unbound radiolabeled species were separated, and their relative amounts were determined by either size-exclusion gel-filtration chromatography or monoclonal antibody capture of MHC. The percent of bound radioactivity was then determined.

The target of test [3] is HLA-DQ2.5 (Homo sapiens, UniProt P01909+P01920, A45G/A70V/D89A/E106A/E77G/E98D/H199R/L107V/N214S/P84L/P87L/T103K/T109R/T172A/T60S/V78E/V99I/Y58L/Y62S/Y69I/Y79F). As to the kind of experiment: MHC II/peptide competition binding assay, HLA-DQ2.5. As to the method:
as §1

The target of test [4] is HLA-DQ2.2 (Homo sapiens, UniProt P01909+P01920, A45G/A70V/C70K/D167G/D89A/E106A/E183D/E77G/E98D/F237L/F77L/G63E/H199R/I129T/K197E/L107V/L178F/L74F/N214S/P84L/P87L/Q57E/Q76R/R75H/S185I/S97I/T103K/T109R/T172A/T60S/V73L/V78E/V99I/Y48F/Y58L/Y62S/Y69I/Y79F). As to the kind of experiment: MHC II/peptide competition binding assay, HLA-DQ2.2. As to the method:
as §1

Test [5] concerns the target HLA-DQ2.5. As to the kind of experiment: MHC II competition binding assay (purified MHC II, radiolabeled probe peptide as competitor).
Test [6] addresses HLA-DQ7.5. The description is as above.
Test [7] concerns the target HLA-DQ8. Described as above.
Test [8] has as its target HLA-DQ2.2. Described as above.
Where [9] appears, read: Table 3, 15-mer peptides, >40000 signifies binding is undetectable by assay.

Regarding `CC(C)C[C@H](NC(=O)[C@H](CO)NC(=O)[C@@H](NC(=O)[C@@H]1CCCN1C(=O)[C@H](Cc1ccc(O)cc1)NC(=O)[C@H](Cc1ccc(O)cc1)NC(=O)CNC(=O)[C@@H]1CCCN1C(=O)[C@H](CCC(N)=O)NC(=O)CNC(=O)[C@@H](N)CCC(N)=O)[C@@H](C)O)C(=O)N[C@H](C(=O)N[C@@H](CCC(N)=O)C(=O)N[C@@H](CO)C(=O)NCC(=O)O)[C@@H](C)O` [SEQ ID NO: 147] (H-QGQPGYYPTSLTQSG-OH), the IC50 in test [1], in test [2], in test [3] and in test [4] was over 40 µM throughout.
As for `CC(C)C[C@H](NC(=O)[C@H](CO)NC(=O)[C@@H](NC(=O)[C@@H]1CCCN1C(=O)[C@H](Cc1ccc(O)cc1)NC(=O)[C@H](Cc1ccc(O)cc1)NC(=O)CNC(=O)[C@H](Cc1c[nH]cn1)NC(=O)[C@H](CCC(N)=O)NC(=O)CNC(=O)[C@@H](N)CCC(N)=O)[C@@H](C)O)C(=O)N[C@@H](Cc1c[nH]cn1)C(=O)N[C@@H](CCC(N)=O)C(=O)N[C@@H](CO)C(=O)NCC(=O)O` [P1f] (H-QGQHGYYPTSLHQSG-OH), the IC50 in test [1] (setting [9]), in test [2] (setting [9]), in test [3] (setting [9]) and in test [4] (setting [9]) was over 40 µM throughout.
In the case of `C[C@@H](O)[C@H](NC(=O)[C@@H]1CCCN1C(=O)[C@H](CC(=O)O)NC(=O)[C@H](CC(N)=O)NC(=O)CNC(=O)[C@H](CCC(=O)O)NC(=O)[C@H](CCC(N)=O)NC(=O)CNC(=O)[C@@H](N)CCC(N)=O)C(=O)NCC(=O)N1CCC[C@H]1C(=O)N[C@@H](CCC(=O)O)C(=O)N[C@@H](CCC(N)=O)C(=O)N[C@@H](CO)C(=O)NCC(=O)O` [P1g] (H-QGQEGNDPTGPEQSG-OH), the IC50 in test [1] (setting [9]), in test [2] (setting [9]), in test [3] (setting [9]) and in test [4] (setting [9]) was over 40 µM each time.
`C[C@H](NC(=O)[C@@H]1CCCN1C(=O)CNC(=O)[C@H](Cc1c[nH]cn1)NC(=O)CNC(=O)[C@H](CCC(=O)O)NC(=O)[C@H](CCC(N)=O)NC(=O)CNC(=O)[C@@H](N)CCC(N)=O)C(=O)N[C@@H](CO)C(=O)N1CCC[C@H]1C(=O)N[C@@H](CCCCN)C(=O)N[C@@H](CCC(N)=O)C(=O)N[C@@H](CO)C(=O)NCC(=O)O` [SEQ ID NO: 174] (H-QGQEGHGPASPKQSG-OH): the IC50 – broadly, the point on the concentration scale where inhibition reaches its midpoint – in test [1] is over 40 µM; in test [2], 16.4 µM; in test [3], over 40 µM; in test [4], over 40 µM.
On to `C[C@@H](O)[C@H](NC(=O)[C@H](CO)NC(=O)[C@@H](NC(=O)[C@@H]1CCCN1C(=O)[C@H](Cc1ccc(O)cc1)NC(=O)[C@H](Cc1c[nH]cn1)NC(=O)[C@H](Cc1c[nH]c2ccccc12)NC(=O)[C@H](CCC(=O)O)NC(=O)[C@H](CCC(N)=O)NC(=O)CNC(=O)[C@@H](N)CCC(N)=O)[C@@H](C)O)C(=O)N[C@@H](CCC(=O)O)C(=O)N[C@@H](CCC(N)=O)C(=O)N[C@@H](CO)C(=O)NCC(=O)O` [P1h] (H-QGQEWHYPTSTEQSG-OH), for which the IC50 was over 40 µM in test [1] (setting [9]), over 40 µM in test [2] (setting [9]), over 40 µM in test [3] (setting [9]) and 5.72 µM in test [4] (setting [9]).
`CC(C)C[C@H](NC(=O)[C@H](CC(=O)O)NC(=O)[C@H](CCCNC(=N)N)NC(=O)CNC(=O)[C@H](CCC(=O)O)NC(=O)[C@H](CCC(N)=O)NC(=O)CNC(=O)[C@@H](N)CCC(N)=O)C(=O)N[C@H](C(=O)N[C@@H](CO)C(=O)N1CCC[C@H]1C(=O)N[C@@H](CCCCN)C(=O)N[C@@H](CCC(N)=O)C(=O)N[C@@H](CO)C(=O)NCC(=O)O)[C@@H](C)O` [SEQ ID NO: 169] (H-QGQEGRDLTSPKQSG-OH): the IC50 in test [1], in test [2], in test [3] and in test [4] was over 40 µM each time.
With `C[C@@H](O)[C@H](NC(=O)[C@@H]1CCCN1C(=O)[C@H](CC(=O)O)NC(=O)[C@H](Cc1ccc(O)cc1)NC(=O)CNC(=O)[C@H](CO)NC(=O)[C@H](CCC(N)=O)NC(=O)CNC(=O)[C@@H](N)CCC(N)=O)C(=O)N[C@@H](CO)C(=O)N1CCC[C@H]1C(=O)N[C@H](C(=O)N[C@@H](CCC(N)=O)C(=O)N[C@@H](CO)C(=O)NCC(=O)O)[C@@H](C)O` [P1d] (H-QGQSGYDPTSPTQSG-OH), the IC50 in test [1] (setting [9]), in test [2] (setting [9]), in test [3] (setting [9]) and in test [4] (setting [9]) was over 40 µM in each case.
Take `C[C@@H](O)[C@H](NC(=O)[C@@H]1CCCN1C(=O)[C@H](Cc1ccc(O)cc1)NC(=O)[C@H](CCCNC(=N)N)NC(=O)CNC(=O)[C@H](CCC(=O)O)NC(=O)[C@H](CCC(N)=O)NC(=O)CNC(=O)[C@@H](N)CCC(N)=O)C(=O)N[C@@H](CO)C(=O)N1CCC[C@H]1C(=O)N[C@@H](CCCCN)C(=O)N[C@@H](CCC(N)=O)C(=O)N[C@@H](CO)C(=O)NCC(=O)O` [SEQ ID NO: 146] (H-QGQEGRYPTSPKQSG-OH): the IC50 in test [1], in test [2], in test [3] and in test [4] was over 40 µM each time.
Take `CC(C)C[C@H](NC(=O)CNC(=O)[C@H](CCCNC(=N)N)NC(=O)CNC(=O)[C@H](CCC(=O)O)NC(=O)[C@H](CCC(N)=O)NC(=O)CNC(=O)[C@@H](N)CCC(N)=O)C(=O)N[C@H](C(=O)N[C@@H](CO)C(=O)N1CCC[C@H]1C(=O)N[C@@H](Cc1c[nH]cn1)C(=O)N[C@@H](CCC(N)=O)C(=O)N[C@@H](CO)C(=O)NCC(=O)O)[C@@H](C)O` [SEQ ID NO: 144] (H-QGQEGRGLTSPHQSG-OH): the IC50 in test [1] is over 40 µM; in test [2], 39.3 µM; in test [3], over 40 µM; in test [4] it was over 40 µM.
For the molecule QGQPRYYPTSPRQSG-OH [P1e, modified 15-mer peptide … (SEQ ID NO: 53)], the IC50 in test [5] was found to be 33.2 µM; in test [6], 19.4 µM; in test [7] it was 32.5 µM.
The molecule QGQEPYGPSSPEQSG-OH [modified 15-mer peptide … (SEQ ID NO: 176)] came in with an IC50 in test [6] of 28.6 µM.
As for QGQEGHGPASPKQSG-OH [modified 15-mer peptide … (SEQ ID NO: 174)], in test [6], the IC50 was determined as 16.4 µM.
The molecule QGQEWHYPTSTEQSG-OH [P1h, modified 15-mer peptide … (SEQ ID NO: 56)] had an IC50 in test [8] of 5.72 µM.
In the case of QGAAGYYPTSPRQSG-OH [P1c, modified 15-mer peptide … (SEQ ID NO: 51)], the IC50 in test [6] is 19.9 µM.
Turning to QGQQGYYPTSPQQSG-OH [P1a, native HMW glutenin 15-mer peptide … (SEQ ID NO: 49)], the IC50 in test [5] amounted to 29.8 µM; in test [7], 14.2 µM.
For QGQEGYYPTSPEQSG-OH [P1b, deamidated HMW glutenin 15-mer peptide … (SEQ ID NO: 50)], the IC50 in test [5] was 3.29 µM; in test [7], 3.75 µM.
In turn, QGQEGRGLTSPHQSG-OH [modified 15-mer peptide … (SEQ ID NO: 144)] yielded an IC50 in test [6] of 39.3 µM.
